The text below walks through data of patent publication US20160213647A1, “COMPOSITIONS AND METHODS FOR INHIBITING VIRAL INFECTION” (priority 2015, published 2016).

Data set [1] in a line: in vitro. The settings on record: African green monkey.
For data set [2], the system named is HIV-1 isolate 1022-48. Put plainly: microbe, parasite or virus in culture. Conditions: Human immunodeficiency virus 1, PBMC.
For data set [3] the following is noted: long term oral exposures up to 33 weeks; cited from earlier work.
The test system of data set [4] is HIV-2 CBL20 H9. The data set is described as follows: microbe, parasite or virus in culture. Conditions: Human immunodeficiency virus 2, PBMC.
Data set [5] relates to JUNV strain XJCl3. The data set is described as follows: microbe, parasite or virus in culture. The settings on record: Mammarenavirus juninense, Vero, 48 h.
Data set [6] relates to HIV-1 isolate NL4-3. The data set is described as follows: microbe, parasite or virus in culture. Conditions: Human immunodeficiency virus 1, NL43, PBMC.
Data set [7] concerns DENV-4. Put plainly: Virus yield reduction assay by qRT-PCR in Vero cells. Conditions: Dengue virus, DENV4, Vero, 48 h, read-out: Antiviral Activity IC50. The data set is classed as cell-based. (Quantitative PCR measures a nucleic acid by following its amplification.)
Data set [8] has as its system RHDV isolate Ast/89. The data set is described as follows: Treatment of rabbits infected with RHDV. It counts as in vivo, New Zealand white rabbits. On the procedure:
Nine-week-old New Zealand white rabbits in a climatized room at 21° C., with a 12 h light cycle in accordance with the experimental design shown in Table 9 and provided standard dry rabbit food and water ad libitum. For survival studies, 14 animals were injected intramuscularly with 2×10^4 hemagglutination units of RHDV isolate Ast/89 and six of them treated with AR-12 (25 mg/Kg body weight) at 0, 12, 24 and 36 hours post infection ([…]). Animals in those groups were left to die spontaneously.

For data set [9], the system named is Vero cells. The settings on record: African green monkey.
Where [10] appears, read: 25 mg/Kg ip, after about 36 hours post infection, versus RHDV.

Converted amounts (≈) assume the structure as drawn. Read-outs that look alike come from different tables or passages of the source.

`NCC(=O)Nc1ccc(-n2nc(C(F)(F)F)cc2-c2ccc3c(ccc4ccccc43)c2)cc1` [AR-12, 2-amino-N-(4-(5-(phenanthren-2-yl)-3-(trifluoromethyl)-1H-pyrazol-1-yl)phenyl)acetamide]: the CC50 was 1.8 µg/mL (≈ 3.91 µM) in [1] (CC50 (Neutral Red)), 2.4 µg/mL (≈ 5.21 µM) in data set [1] (CC50 (neutral red)) and 2.8 µg/mL (≈ 6.08 µM) in [1] (CC50 (visual)). Further, the IC90 in data set [2] was determined as 489 nM; in data set [2] (read-out: IC50), 3680 nM; in data set [6], 749 nM; in data set [6] (read-out: IC50), 2170 nM. Further, the safety profile result in data set [3] is “acceptable safety profile”. The IC50 was 510 nM in [4] and 890 nM in data set [7]. The molecule also returned an EC50 in [5] of 230 ± 10 nM. For the same molecule, the “survival rates of infected rabbits increased” value in [8] (25 mg/Kg ip each 12 hours, at least about 24 hours post infection, p<0.05 Fisher test) was “about 20%”. Besides, the “level of marker of liver toxicity ALT (Alanine transaminase)” value in data set [8] (setting [10]) is listed as “decreased”. In addition, in data set [8] (setting [10]), the “level of marker of liver toxicity AST (Aspartate transaminase)” value was “decreased”. Further, in [8] (setting [10]), the “level of marker of liver toxicity GGT (gamma-glutamyl transferase)” value was “decreased”. Besides, the “level of marker of liver toxicity LDH (lactate dehydrogenase)” value in [8] (setting [10]) was “decreased”. Besides, the MNTD in data set [9] is > 10 µM.

By IC50 is commonly meant the concentration that gives 50% inhibition. One may read the EC50 as the concentration that produces a half-maximal response.
